Measured values reported in patent US10478437B2, “Combination therapy to enhance the anticancer efficacy of platinum drugs” (University of Pittsburgh-of the Commonwealth System of …, priority 2014, dated 2019).
“Also recorded” adds a separate entry of the source.

What was measured:
[1] = tested on: cisplatin-resistant ovarian cancer cell line A2780cis; assay: Caspase-3/7 activity assay (apoptotic cell death), compound alone or with cisplatin; type: cell-based, human; conditions: for caspase-3/7 activity (Lum) with compound and cisplatin (20 μM) / caspase-3/7 activity (Lum) with compound alone: Table 6; for caspase-3/7 activity (Lum) with compound alone: untreated cells 9 ± 1
Summary of the method: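 Caspase-3/7 activity in A2780cis cells treated with compound alone or with cisplatin, luminescent Caspase-Glo 3/7 read-out. Apoptotic morphology is checked microscopically just before measurement.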

[2] = tested on: Bax/Bak wildtype (WT) and double knockout (DKO) MEF cells; assay: Western blot of Caspase-8, 9 and 3 cleavage in Bax/Bak WT and DKO cells; type: cell-based, mouse; conditions: compound 20 μM + cisplatin 10 μM, 20 h, FIG. 8C; in words
Method: Whole cell lysate was prepared by lysing cells in cell lysis buffer (Cell signaling technology) containing complete protease inhibitor (Roche). Cell lysates were then cleared at 15,000 rpm for 15 min at 4° C. The protein content was quantified using a Bio-Rad Protein Assay kit (Bio-Rad Laboratories, Hercules, Calif.). The equal amount of protein was separated on Tris-glycine gels (Invitrogen). The separated proteins were blotted onto a polyvinylidene difluoride membrane and blocked overnight at 4° C. in phosphate-buffered saline containing 0.1% Tween 20 and 10% nonfat dry milk (blocking buffer). Membranes were incubated with primary antibodies in blocking buffer overnight at 4° C. Primary antibodies used were: β-actin from Sigma; Bax, Bak, Caspase-9 and cleaved Caspase-3 from Cell Signaling Technology; phospho-Histone H2AX (Ser 139) and Noxa from Millipore. Membranes were then washed and incubated in peroxidase conjugated anti-rabbit IgG (Sigma) or anti-mouse IgG (Sigma) secondary antibody for 1 h at room temperature. Membranes were developed using SuperSignal West Femto Maximum Sensitivity Substrate (Thermo Fisher Scientific).
In order to understand the role of Bax and Bak in the efficacy of cisplatin and compound 1-6, Bax/Bak double knockout (DKO) SV40-transformed MEF cells were used. […] The cleavage of Caspase-8, 9, and 3 were determined by western blot.

`CCOCCCn1c(=S)[nH]c2c(C)cccc2c1=O` [Compound 1-6] was tested, and the “activation of Caspase-3/7 in combination with cisplatin compared to mdivi-1” value ([1]; FIG. 7A and Table 6, in words) was “more effective; also recorded: more potent than mdivi-1”, the “caspase-3/7 activity (Lum), compound with cisplatin” value ([1]; Table 1, compound 20 μM with 20 μM cisplatin, 20 h) was 145 ± 6 Lum and the “caspase-3/7 activity (Lum), compound alone” value ([1]; Table 1, compound 20 μM, 20 h, mean ± S.D. of triplicates) was 12 ± 0 Lum. The “caspase-3/7 activity (Lum), compound alone” value ([1]; Table 2, compound 20 μM, 20 h) was 12 ± 0 Lum, the “caspase-3/7 activity (Lum) with compound and cisplatin (20 μM)” value (shortened to “caspase-3/7 activity (Lum) … (20 μM)”) ([1]; compound 5 μM + cisplatin 20 μM, 20 h) was 22 ± 1 Lum and the “caspase-3/7 activity (Lum) with compound alone” value ([1]; compound 5 μM, 20 h) was 10 ± 1 Lum. The “caspase-3/7 activity (Lum) … (20 μM)” value ([1]; compound 10 μM + cisplatin 20 μM, 20 h) was 67 ± 3 Lum, the “caspase-3/7 activity (Lum) with compound alone” value ([1]; compound 10 μM, 20 h) was 10 ± 1 Lum and the “caspase-3/7 activity (Lum) … (20 μM)” value ([1]; compound 20 μM + cisplatin 20 μM, 20 h) was 105 ± 7 Lum. The “caspase-3/7 activity (Lum) with compound alone” value ([1]; compound 20 μM, 20 h) was 11 ± 2 Lum, the “activity in the screen (Caspase-3/7 activity and microscopic examination), active / inactive” value ([1]; alone or in the presence of cisplatin, in words) was “active” and the “Caspase-3/7 activity upon combination with cisplatin compared to cisplatin alone or compound alone” value ([1]; in words) was “increase in Caspase-3/7 activity”. The “cleavage of caspases in Bax/Bak WT and DKO MEF cells, combination with cisplatin” value [2] was “cleavage of Caspase 3 and 9 independent of Bax or Bak activity”.
